According to patent publication US20220218851A1, “COMPOUNDS AND METHODS FOR IMAGING IMMUNE ACTIVITY” (Board of Regents, The University of Texas System, priority 2019, published 2022):
Entries after “also recorded” stand apart in the source; their conditions may differ. Structures can show the parent of a compound that is named as a salt.

Experiments:
[1] = tested on: neutrophil-like human HL-60 cells; assay: [^18F]4FN cellular retention in PMA-activated neutrophil-like HL-60 cells; format: cell-based
Protocol: HL-60 cells were first differentiated to yield “neutrophil-like” cells. Then, in parallel, cell aliquots from each batch were imaged with L-012 (to confirm ROS production by bioluminescence) and incubated with 6.2 kBq of [^18F]4FN. To induce ROS, all cells were incubated with PMA. […] Data were quantified as a ratio of the cell-associated radioactive counts per milligram protein over concentration of radiotracer in the extracellular space, and then normalized to vehicle.

[2] = tested on: Nox2; assay: PMA ear inflammation model in Nox2 KO mice, PET/CT imaging; format: in vivo, mouse; conditions: Nox2 KO mice (gp91phox-/-), IP, one-hour post administration
Protocol: Balb/c mice were treated with either PMA or vehicle and imaged 24 hr post treatment by PET/CT scan at 1 hr post-injection (IP) of [^18F]4FN (FIG. 1A); photograph 3 hr post [^18F]4FN (FIG. 1i). BLI 10 min post luminol injection (FIG. 1C). Aged-matched, 15-week-old female wild-type […] or Nox2 KO mice (n=3 each) were treated with PMA or vehicle and imaged with [^18F]4FN one-hour post IP administration of radiotracer. PET/CT data were quantified using ROIs surrounding the right and left ears. Contrast-to-noise ratios were calculated for all mice and data were plotted as mean and SEM. […] Radioactive HPLC trace and chemical structure of [^18F]4FN (FIG. 1E).
3 Months old Balb/c female mice or 20-26 week-old female C57B16 mice (Taconic) were topically treated with PMA (Sigma) (400 μM) in ethanol on the right ear or vehicle, ethanol, on the left ear. 24 hrs later, inflammation of the right ear was validated by visual inspection for redness and swelling. Mice were then injected IV (unless noted) with [^18F]FN or [^18F]FNS or [^18F]FNG derivatives as noted and PET/CT images were acquired at times indicated, typically 1 hr post injection. Mice, n=3 for [^18F]FN and [^18F]FNS, were euthanized at 1.5 hr post injection for blood metabolism analysis. […]

[3] = Shelf-stability of the formulated radiotracer in PBS (10% EtOH); format: physicochemical
Protocol: (§1) [^18F]4FN was synthesized on the automated module GE TracerLab-FX from precursor 1 in 6.8±2.5% (n=22) activity yield, by means of a copper-mediated radiofluorination of the corresponding Boc-protected pinacol boronic ester, followed by deprotection, purification and reformulation (Scheme 2; Tredwell et al., 2014). [^18F]4FN was obtained in >99% radiochemical purity, 50-140 GBq/μmol and up to 4 h shelf-stability in PBS (10% EtOH). [^18F]4FN was also stable in mouse plasma for at least 1 h.

[4] = In vivo mouse blood and urine metabolism by radio-HPLC
Protocol: (§2) 3 Months old Balb/c female mice or 20-26 week-old female C57B16 mice (Taconic) were topically treated with PMA (Sigma) (400 μM) in ethanol on the right ear or vehicle, ethanol, on the left ear. 24 hrs later, inflammation of the right ear was validated by visual inspection for redness and swelling. Mice were then injected IV (unless noted) with [^18F]FN or [^18F]FNS or [^18F]FNG derivatives as noted and PET/CT images were acquired at times indicated, typically 1 hr post injection. Mice, n=3 for [^18F]FN and [^18F]FNS, were euthanized at 1.5 hr post injection for blood metabolism analysis. In one experiment, adult (3 month old Balb/c) were imaged on an in vivo imaging system (IVIS Spectrum, PE; 5 min, binning 16, 25 cm FOV) 10 min post injection of Luminol (200 mg/kg) IP to confirm production of reactive oxygen species. For [^18F]FDG PET imaging experiments, mice were fasted for >4 hr prior to FDG injection. Mice were injected with [^18F]FDG IV under light anesthesia and then allowed to awake, move and drink water at libitum. Cages were kept on a cage warmer during uptake and washout periods. Mice were imaged starting at 45 min post-injection with a 10 min PET/CT scan (Albira, Bruker).
In vivo mouse blood metabolism was also performed. Blood was drawn from inflamed, non-inflamed and MPO knock-out mice at 5 min and 1.5 h post injection, processed and analyzed by analytical radio-HPLC. […] While 4-fluoronaphthol metabolism has not been studied, naphthol metabolism is well documented in the literature: the molecule is reported to be quickly transformed into glucuronic and sulfuric esters, and this pathway is conserved from flies to man (Narukawa et al., 2004 and Terriere et al., 1961). […] To test this hypothesis, [^18F]4FN was transformed enzymatically with glucuronosyltransferase and sulfonyl transferase into the corresponding glucuronide and sulfate derivatives (Scheme 3), respectively, and the products analyzed by radio-HPLC.

[5] = tested on: PMA-induced ear inflammation; assay: PMA ear inflammation model, PET/CT imaging; format: in vivo, mouse; conditions: for detection of PMA-inflamed ear versus vehicle ear by PET: about 1 hr post tracer injection ([^18F]FDG from 45 min)
Protocol: as §2, with “Bruker). In all cases, PET images were acquired for 10 min using a 15 cm FOV; CT images were acquired for fusion using a 7 cm FOV also centered on the object of interest. Image data were decay corrected to injection time (Albira, Bruker) and expressed as % ID/cc or SUV as indicated (PMOD, PMOD Technologies). Actual injected dose was calculated based on measuring the pre- and post-injection activity in the syringe with a dose calibrator on a per mouse basis (Capintec), and mice were individually weighed to calculate individual standardized uptake values. In the context of an acute inflammation model, [^18F]4FN was tested in a pilot experiment in Balb/c mice topically treated with PMA on the right ear or vehicle on the left ear. The treated ear turned red, visually confirming the inflammation site. Mice were injected IP with [^18F]4FN and PET/CT scans were taken at 11 min, 1 h, 2 h and 3 h post injection of tracer (FIG. 5). […] After 1 h, the inflamed ear was clearly visualized (>2% ID/cc). […] Production of reactive oxygen species in the inflamed ear was confirmed by BLI with luminol after PET imaging (FIG. 5) (Gross et al., 2009). This indicated the dependence of the signal on induced inflammation.” for “Bruker).”

[6] = Stability in mouse plasma; format: in vitro ADME
Protocol: as §1

[7] = tested on: LPS-induced arthritis; assay: LPS-induced model of arthritis, PET imaging and L-012 BLI; format: in vivo, mouse
Protocol: Herein, C57BL6/N mice were injected i.a. with LPS, left ankle, or vehicle, right ankle. After 24 hours, mild inflammation of the left ankle was confirmed by visual inspection. 1 hour dynamic PET scans were acquired post i.v. injection of [^18F]4FN. Mice were subsequently imaged for ROS by BLI (L-012). A) 1 hour static [^18F]4FN PET image (left) and BLI (right). B) PET image-derived time-activity curves (TACs) were quantified for the ankles (left, n=4). […] C) H&E staining cross-validated local inflammation (vehicle, left panel; LPS, right panel), utilizing the same mouse as imaged in A. D) Image-based biodistribution was calculated from the dynamic PET/CT data and SUV plotted for various organs over time.
[^18F]4FN PET was employed to image a model of inflammatory arthritis and validate its correlation with L012, a known ROS/RNS bioluminescence sensor.

[8] = tested on: 4T1 tumor; assay: 4T1 tumor PET imaging; format: in vivo, mouse; conditions: immunocompetent Balb/C mice, 1 h after injection
Protocol: 4T1 murine breast cancer cells were cultured and passaged per ATCC guidelines and utilized prior to 20 passages. 10,000 4T1 cells were injected subcutaneously into the right flank of 6-8 week old Balb/c mice. Tumors grew for 3 weeks prior to imaging. In all cases, PET images were acquired for 10 min using a 15 cm FOV; CT images were acquired for fusion using a 7 cm FOV also centered on the object of interest. Image data were decay corrected to injection time (Albira, Bruker) and expressed as % ID/cc or SUV as indicated (PMOD, PMOD Technologies). Actual injected dose was calculated based on measuring the pre- and post-injection activity in the syringe with a dose calibrator on a per mouse basis (Capintec), and mice were individually weighed to calculate individual standardized uptake values. [^18F]4FNS PET has been employed to visualize 4T1 tumors in immunocompetent Balb/C mice. 4T1 is a reliable murine model for triple negative breast cancer and, in its early proliferative stage, is believed to be heavily infiltrated by immune cells, particularly active neutrophils and myeloid derived suppressor cells (MDSCs; Wang et al., 2017 and Bunt et al., 2006).

c1ccc2c(c1)[I+]c1ccccc1-2 [DPI, reference compound]
blocking of PMA-induced [^18F]4FN retention ([1]; pre-incubation with inhibitor prior to PMA): blocked

Oc1ccc([18F])c2ccccc12 [[^18F]4FN, 4-[^18F]fluoro-1-naphthol]
difference between inflamed and non-inflamed ear in Nox2 KO mice versus WT [2]: substantially smaller compared to WT inflamed mice; also recorded: decreased contrast between PMA-treated and untreated ears | shelf-stability [3]: up to 4 h | blood metabolites ([4]; 5 min after injection): Metabolites are also present | blood metabolites ([4]; inflamed mice, 1.5 h post injection): more polar metabolites were observed | blood radio-HPLC, parent compound ([4]; non-inflamed and MPO knock-out mice, 1.5 h post injection): the parent compound could still be seen | clearance of the tracer ([5]; Balb/c mice, IP injection): renal dominant | crossing of blood-brain barrier (radioactivity in the intracranial region) ([5]; Balb/c mice, IP injection): may not cross an intact blood-brain barrier | hepatobiliary excretion ([5]; Balb/c mice, IP injection): partial hepatobiliary excretion | radioactivity in the liver ([5]; Balb/c mice, IP injection): low | differentiation in uptake between inflamed right ear and vehicle treated left ear ([5]; Balb/c mice, IP injection, 11 min post-injection): no differentiation in uptake | uptake in inflamed ear ([5]; Balb/c mice, IP injection, 1 h post injection): > 2 % ID/cc | uptake-ratio between right-inflamed ear and left-control ear ([5]; IP injection, 11 min to 3 h post injection): increased over time | Cohen's d effect size, inflamed versus non-inflamed sites ([5]; IP or IV delivery, n=5): large Cohen's d effect sizes | contrast ratios inflamed versus non-inflamed ([5]; IP or IV delivery, n=5): strong contrast ratios | difference in SUV between inflamed and vehicle-treated ears ([5]; IP or IV delivery, n=5): statistically detectable differences in SUV; also recorded: statistically detectable differences in SUVaverage values | detection of PMA-inflamed ear versus vehicle ear by PET ([5]; IV injection): clearly visible | detection of PMA-inflamed ear versus vehicle ear by PET ([5]; IV injection, listed as [^18F]FN): readily detectable | stable in mouse plasma [6]: at least 1 h | [^18F]4FN retention in activated cells vs vehicle (ratio) ([1]; PMA-activated differentiated HL-60 cells, normalized to vehicle): > 1 | correlation of PET accumulation in inflamed ankles with L012 bioluminescence ([7]; 1 hr, per animal basis): correlated strongly with L012; also recorded: directly correlated | imaging of inflammatory ROS burst by PET ([7]; C57BL6/N mice, LPS i.a. left ankle, i.v. tracer): readily image the inflammatory ROS burst

O=C(O)C1OC(Oc2ccc([18F])c3ccccc23)C(O)C(O)C1O (centres unmarked) [[^18F]4FNG, [^18F]4-fluoronaphthalen-1-yl glucuronide]
detection of PMA-inflamed ear versus vehicle ear by PET ([5]; IV injection): small differentiation | clearance relative to other tracers ([5]; PMA model): cleared much faster | retention in PMA-inflamed ear relative to other tracers ([5]; PMA model, 1 h post injection): retained much less than [^18F]FN and [^18F]FNS

O=S(=O)(O)Oc1ccc([18F])c2ccccc12 [[^18F]4FNS, [^18F]4-fluoronaphthalen-1-yl sulfate]
visualization of 4T1 tumor by PET [8]: clearly visible; also recorded: easily distinguishable | detection of PMA-inflamed ear versus vehicle ear by PET ([5]; IV injection): readily detected; also recorded: clearly visible; also recorded: readily detectable | clearance ([5]; IV injection, n=3): Rapid primarily renal clearance | defluorination (bone) ([5]; IV injection, n=3): minor defluorination | hepatobiliary excretion ([5]; IV injection, n=3): minor hepatobiliary excretion

OC[C@H]1OC(O)[C@H]([18F])[C@@H](O)[C@@H]1O (some centres unmarked) [[^18F]FDG, reference compound]
detection of PMA-inflamed ear versus vehicle ear by PET ([5]; IV injection): no differentiation between the ears; also recorded: no FDG image asymmetry was observed

O=C([O-])CC(O)(CC(=O)[O-])C(=O)[O-].[68Ga+3] [^68Ga-citrate, reference compound]
difference between inflamed and vehicle ears (perfusion control) ([5]; same animals, same time points): No difference between the ears
